Test results reported in PubChem BioAssay (NCI).
Where “and” joins values, the source holds several entries; their conditions need not be identical. Identical values can stand only once.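 96-well plates; 48 h exposure; 5 concentrations. Endpoints by linear interpolation between flanking doses. Not reached: highest tested concentration assigned. GI50 marks 50% less growth. TGI: total growth inhibition.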

How the values were obtained:
Test in all cases: NCI tumour cell line growth inhibition, 48 h
NCI-H23 lung = system: NCI-H23 lung
SNB-75 CNS = system: SNB-75 CNS
MOLT-4 leukemia = system: MOLT-4 leukemia
CAKI-1 renal = system: CAKI-1 renal
HL-60(TB) leukemia = system: HL-60(TB) leukemia
M14 melanoma = system: M14 melanoma
SK-MEL-28 melanoma = system: SK-MEL-28 melanoma
A498 renal = system: A498 renal
BT-549 breast = system: BT-549 breast
HS 578T breast = system: HS 578T breast

Row | Compound | GI50 (NCI-H23 lung) [µM] | TGI (NCI-H23 lung) [µM] | GI50 (SNB-75 CNS) [µM] | TGI (SNB-75 CNS) [µM] | GI50 (MOLT-4 leukemia) [µM] | TGI (MOLT-4 leukemia) [µM] | GI50 (CAKI-1 renal) [µM] | TGI (CAKI-1 renal) [µM] | GI50 (HL-60(TB) leukemia) [µM] | TGI (HL-60(TB) leukemia) | GI50 (M14 melanoma) [µM] | TGI (M14 melanoma) | GI50 (SK-MEL-28 melanoma) [µM] | TGI (SK-MEL-28 melanoma) | GI50 (A498 renal) [µM] | TGI (A498 renal) | GI50 (BT-549 breast) [µM] | TGI (BT-549 breast) [µM] | GI50 (HS 578T breast) [µM] | TGI (HS 578T breast) [µM]
1 | CN(Cc1ccc(C(F)(F)F)cc1)CC(O)C(=O)Nc1ccc(Cl)cc1 (stereo not given) | 1.32 | 2.69 | 1.31 | 2.62 | 1.42 | 3.28 | 1.37 | 2.83 | 1.37 | 3.09 µM | 1.52 | 3.05 µM | 1.62 | 3.16 µM | 1.38 | 2.79 µM | 1.46 | 2.88 | – | –
2 | COc1ccc(-c2cc(C(=O)Nc3cc(C(F)(F)F)cc(C(F)(F)F)c3)c3ccccc3n2)cc1 | – | 19.2 | – | 29.6 | – | > 100 | – | 25.5 | – | > 100 µM | – | 25 µM | – | 73.9 µM | – | 40 µM | – | – | – | –
3 | COC(=O)C1=C(CS(=O)c2ccc([N+](=O)[O-])cc2[N+](=O)[O-])C2C=CC1C2 (stereo not given) | – | 98.9 | – | 76.6 | – | 59.8 | – | 39.6 | – | 37.2 µM | – | > 100 µM | – | – | – | > 100 µM | – | – | – | –
4 | N/C(=N\NS(=O)(=O)c1ccccc1)Oc1ccc(Br)cc1Br | – | > 100 | – | > 100 | – | > 100 | – | > 100 | – | > 100 µM | – | > 100 µM | – | > 100 µM | – | > 100 µM | – | – | – | –
5 | NCCCCC1NC(=O)C(CC(=O)O)NC(=O)CNC(=O)C(CCCN=C(N)N)NC(=O)C(N)CSSCC(C(=O)O)NC(=O)C(CC(=O)O)NC(=O)C2CCCN2C(=O)CNC1=O (stereo not given) | > 100 | > 100 | > 100 | > 100 | – | – | 65.4 | > 100 | – | – | > 100 | > 100 µM | > 100 | > 100 µM | > 100 | > 100 µM | > 100 | > 100 | > 100 | > 100
6 | CC1(c2cc3c(cc2Br)OCO3)SCCCS1 | – | 45.5 | – | > 100 | – | 96.2 | – | – | – | 65.9 µM | – | > 100 µM | – | > 100 µM | – | > 100 µM | – | – | – | –
7 | CC(C)(O)/C=C/C(=O)[C@](C)(O)[C@H]1[C@H](O)C[C@@]2(C)[C@@H]3CC=C4[C@@H](C[C@H](O)C(=O)C4(C)C)[C@]3(C)C(=O)C[C@]12C | 0.462 | 15.5 | 0.0496 | – | 0.709 | 11.8 | 1.85 | – | – | 0.687 µM and 1.68 µM | 0.0563 | 5.94 µM | 0.028 | 0.0828 µM and 0.432 µM | 0.0909 | 0.244 µM and 0.115 µM | – | – | – | –
8 | Clc1cccc(N2CCN(CCCN3CCc4c([nH]c5ccccc45)C3c3cccnc3)CC2)c1 (stereo not given) | – | 27 | – | 26.7 | 5.33 | 39.8 | – | 25.7 | 4.63 | > 100 µM | 2.47 | 4.96 µM and 5.78 µM | 5.58 | 20.4 µM | – | 27.2 µM | – | – | – | –
9 | Cn1cccc1-c1cc(-c2ccccc2)[nH]c(=O)c1C#N | > 100 | > 100 | 45.1 | > 100 | 18.9 | 45.4 | > 100 | > 100 | – | – | – | – | > 100 | > 100 µM | 25.6 | > 100 µM | > 100 | > 100 | > 100 | > 100
10 | Cc1c2c(cc3c1C(=O)C(=O)C1=C3OC[C@@H]1C)C(C)(C)CCC2 | – | 28.4 | – | 41.9 | – | 32 | – | > 100 | – | 26.9 µM | – | 26.9 µM | – | 27.3 µM | – | 59.6 µM | – | – | – | –
11 | COC(=O)C12CC(NC(=O)c3csc([C@@H](C[C@H](C(C)C)N(C)C(=O)[C@@H](NC(=O)[C@H]4CCCCN4C)C4CC4)OC(C)=O)n3)(C1)C2 | 0.0885 | > 16.7 | 0.00548 | > 16.7 | 0.00745 | > 16.7 | – | – | 0.00243 | 0.00876 µM | 0.00988 | > 5.28 µM | 0.148 | > 16.7 µM | 0.0833 | > 4.46 µM | 0.00766 | 2.72 | 0.0169 | > 16.7
12 | COc1ccc(NC(=O)/C=C(C)/C=C/C=C(C)/C=C/C2=C(C)CCCC2(C)C)cc1 | 9.78 | 24.3 | 4.5 | 18.5 | 2.34 | 5.96 | 3.28 | 14.4 | 2.85 | 6.01 µM | – | – | 4.13 | 14.1 µM | 19.9 | 34.5 µM | 27.2 | 43.3 | 9.42 | 39.8
13 | CCN1CCN(c2cc(C)nc(N(CCCNc3ccnc4cc(Cl)ccc34)Cc3ccc4c(c3)OCO4)n2)CC1 | 7.4 | > 100 | 1.59 | 3.57 | 2.84 | > 100 | – | – | 1.9 | 4 µM | 1.89 | 3.5 µM | 1.84 | 3.46 µM | 3.66 | 20.8 µM | 2.72 | 8.5 | 1.93 | 5.26
14 | Oc1c(Cl)cc(Cl)c2ccc(Cn3cc(-c4cc(C(F)(F)F)cc(C(F)(F)F)c4)nn3)nc12 | 3.05 | 9.88 | 1.47 | 8.09 | 0.823 | 5.91 | 1.16 | 2.53 | – | – | 1.61 | 3.45 µM | 1.7 | 3.48 µM | 2.6 | 10.8 µM | 1.84 | 4.41 | 2.98 | 9.3
15 | O=C1C(=O)N(c2ccc(Cl)cc2)C(=O)C(=O)C1c1nc2ccccc2s1 | – | > 100 | – | > 100 | – | > 100 | – | > 100 | – | – | – | > 100 µM | – | > 100 µM | – | – | – | – | – | –
16 | NC(=O)c1cc(N(CCO)CCO)c([N+](=O)[O-])cc1[N+](=O)[O-] | – | > 100 | – | – | – | > 100 | – | > 100 | – | > 100 µM | – | > 100 µM | – | > 100 µM | – | > 100 µM | – | – | – | > 100
17 | CCC(C)Oc1nc2c(c(=O)n(C)c(=O)n2C)n1C (stereo not given) | > 100 | > 100 | > 100 | > 100 | > 100 | > 100 | > 100 | > 100 | > 100 | > 100 µM | > 100 | > 100 µM | > 100 | > 100 µM | – | – | > 100 | > 100 | – | –
